{"source": "patent US12012410B2", "about": "“Substituted pyrazolo[1,5-a]pyrazines for spinal muscular atrophy” (REBORNA BIOSCIENCES, INC., priority 2018, dated 2024)", "test_system": "FL-SMN mRNA (SMN transcript containing exons 7 and 8)", "experiment": "Live-cell assay to measure changes in FL-SMN mRNA levels (qPCR) after exposure to the compounds", "format": "cell-based, human", "conditions": "fibroblasts derived from patients SMA (GM03813); 24 hours incubation", "outline": "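SMA patient fibroblasts (GM03813) in DMEM/10% FBS were treated with compound (0.1% DMSO final) for 24 h. FL-SMN and Δ7 mRNA were measured by RT-qPCR against oligo DNA standard curves and normalised to GAPDH. Values are % of the DMSO control, binned by asterisk from ≥100% to ≥180%.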", "data": [{"molecule": "CCN1CCC(F)(c2nc3c(F)cc(-c4ccc5nc(C)cn5c4)cc3c(=O)[nH]2)CC1", "note": "[Example 95, 2-(1-ethyl-4-fluoropiperidin-4-yl)-8-fluoro-6-(2-methylimidazo[1,2-a]pyridin-6-yl)quinazolin-4(3H)-one]", "values": [{"measurement": "Percentage of increase (FL-SMN mRNA standardized against GAPDH, DMSO control set as 100%)", "value": "*** (equal to or higher than 150% but lower than 180%)"}]}, {"molecule": "Cc1cn2cc(-c3ccc4nc(C5CCN(C)CC5)[nH]c(=O)c4c3)cc2c(C)n1", "note": "[Example 20, 6-(1,3-Dimethylpyrrolo[1,2-α]pyrazin-7-yl)-2-(1-methylpiperidin-4-yl)quinazolin-4(3H)-one]", "values": [{"measurement": "Percentage of increase (FL-SMN mRNA standardized against GAPDH, DMSO control set as 100%)", "value": "**** (equal to or higher than 180%)"}]}, {"molecule": "Cc1cn2nc(-c3nc4ccc(N5CCN(C6CC6)CC5)cc4c(=O)[nH]3)ccc2n1", "note": "[Example 118, 6-(4-cyclopropylpiperazin-1-yl)-2-(2-methylimidazo[1,2-b]pyridazin-6-yl)quinazolin-4(3H)-one]", "values": [{"measurement": "Percentage of increase (FL-SMN mRNA standardized against GAPDH, DMSO control set as 100%)", "value": "*** (equal to or higher than 150% but lower than 180%)"}]}, {"molecule": "Cc1nn(C)c2cc(F)c(-c3nc4ccc(N5CCN(C)CC5)cc4c(=O)[nH]3)cc12", "note": "[Example 59, 2-(6-fluoro-1,3-dimethyl-1H-indazol-5-yl)-6-(4-methylpiperazin-1-yl)quinazolin-4(3H)-one]", "values": [{"measurement": "Percentage of increase (FL-SMN mRNA standardized against GAPDH, DMSO control set as 100%)", "value": "* (equal to or higher than 100% but lower than 120%)"}]}, {"molecule": "COCCN1CCC(F)(c2nc3ccc(-c4cc(F)c5nc(C)cn5c4)cc3c(=O)[nH]2)CC1", "note": "[Example 110, 2-[4-fluoro-1-(2-methoxyethyl)piperidin-4-yl]-6-(8-fluoro-2-methylimidazo[1,2-a]pyridin-6-yl)quinazolin-4(3H)-one]", "values": [{"measurement": "Percentage of increase (FL-SMN mRNA standardized against GAPDH, DMSO control set as 100%)", "value": "** (equal to or higher than 120% but lower than 150%)"}]}, {"molecule": "Cc1nc2ccc(-c3ccc4nc(C5CCN(C)CC5)[nH]c(=O)c4c3)cc2s1", "note": "[Example 14, 6-(2-Methyl-1,3-benzothiazol-6-yl)-2-(1-methylpiperidin-4-yl)quinazolin-4(3H)-one]", "values": [{"measurement": "Percentage of increase (FL-SMN mRNA standardized against GAPDH, DMSO control set as 100%)", "value": "*** (equal to or higher than 150% but lower than 180%)"}]}, {"molecule": "Cc1cn2nc(-c3nc4ccc(N5CCN6CCCCC6C5)cc4c(=O)[nH]3)cc2c(C)n1", "note": "(stereo not shown) [Example 124, 2-(4,6-dimethylpyrazolo[1,5-a]pyrazin-2-yl)-6-(octahydro-2H-pyrido[1,2-a]pyrazin-2-yl)quinazolin-4(3H)-one]", "values": [{"measurement": "Percentage of increase (FL-SMN mRNA standardized against GAPDH, DMSO control set as 100%)", "value": "*** (equal to or higher than 150% but lower than 180%)"}]}, {"molecule": "Cc1cn2cc(-c3cc(C)c4nc(C5(F)CCN(C)CC5)[nH]c(=O)c4c3)cc(F)c2n1", "note": "[Example 89, 6-(8-fluoro-2-methylimidazo[1,2-a]pyridin-6-yl)-2-(4-fluoro-1-methylpiperidin-4-yl)-8-methylquinazolin-4(3H4)-one]", "values": [{"measurement": "Percentage of increase (FL-SMN mRNA standardized against GAPDH, DMSO control set as 100%)", "value": "**** (equal to or higher than 180%)"}]}, {"molecule": "Cc1nc2ccc(-c3cc(F)c4nc(C5CCN(C6CC6)CC5)[nH]c(=O)c4c3)cc2o1", "note": "[Example 31, 2-(1-cyclopropylpiperidin-4-yl)-8-fluoro-6-(2-methyl-1,3-benzoxazol-6-yl)quinazolin-4(3H)-one]", "values": [{"measurement": "Percentage of increase (FL-SMN mRNA standardized against GAPDH, DMSO control set as 100%)", "value": "**** (equal to or higher than 180%)"}]}, {"molecule": "Cc1cn2nc(-c3nc4ccc(C5CCN(C)CC5)c(F)c4c(=O)[nH]3)cc2c(C)n1", "note": "[Example 4, 2-(4,6-Dimethylpyrazolo[1,5-α]pyrazin-2-yl)-5-fluoro-6-(1-methylpiperidin-4-yl)quinazolin-4(3H)-one]", "values": [{"measurement": "Percentage of increase (FL-SMN mRNA standardized against GAPDH, DMSO control set as 100%)", "value": "**** (equal to or higher than 180%)"}]}, {"molecule": "COc1ccnc(-c2nc3ccc(C4CCN(C)CC4)cc3c(=O)[nH]2)c1", "note": "[Example 48, 2-(4-Methoxypyridin-2-yl)-6-(1-methylpiperidin-4-yl)quinazolin-4(3H)-one]", "values": [{"measurement": "Percentage of increase (FL-SMN mRNA standardized against GAPDH, DMSO control set as 100%)", "value": "* (equal to or higher than 100% but lower than 120%)"}]}, {"molecule": "Cc1cn2cc(-c3cc4c(=O)[nH]c(C5CCN(C)CC5)nc4cc3C)ccc2n1", "note": "[Example 62, 7-methyl-6-(2-methylimidazo[1,2-a]pyridin-6-yl)-2-(1-methylpiperidin-4-yl)quinazolin-4(3H)-one]", "values": [{"measurement": "Percentage of increase (FL-SMN mRNA standardized against GAPDH, DMSO control set as 100%)", "value": "* (equal to or higher than 100% but lower than 120%)"}]}, {"molecule": "Cc1cc2oc(-c3nc4ccc(N5CCN(C)CC5)cc4c(=O)[nH]3)cc2c(C)n1", "note": "[Example 11, 2-(4,6-Dimethylfuro[3,2-c]pyridin-2-yl)-6-(4-methylpiperazin-1-yl)quinazolin-4(3H)-one]", "values": [{"measurement": "Percentage of increase (FL-SMN mRNA standardized against GAPDH, DMSO control set as 100%)", "value": "*** (equal to or higher than 150% but lower than 180%)"}]}, {"molecule": "Cc1cn2cc(-c3ccc4nc(C5CCOCC5)[nH]c(=O)c4c3)ccc2n1", "note": "[Example 81, 6-(2-methylimidazo[1,2-a]pyridin-6-yl)-2-(tetrahydro-2H4-pyran-4-yl)quinazolin-4(3H)-one]", "values": [{"measurement": "Percentage of increase (FL-SMN mRNA standardized against GAPDH, DMSO control set as 100%)", "value": "* (equal to or higher than 100% but lower than 120%)"}]}, {"molecule": "CC[C@@H]1CN(C)CCN1c1ccc2nc(-c3cc4c(C)nc(C)cn4n3)[nH]c(=O)c2c1", "note": "[Example 132, (R)-2-(4,6-dimethylpyrazolo[1,5-a]pyrazin-2-yl)-6-(2-ethyl-4-methylpiperazin-1-yl)quinazolin-4(3H4)-one]", "values": [{"measurement": "Percentage of increase (FL-SMN mRNA standardized against GAPDH, DMSO control set as 100%)", "value": "*** (equal to or higher than 150% but lower than 180%)"}]}, {"molecule": "COCCN1CCC(c2nc3cnc(-c4cc(F)c5nc(C)cn5c4)cc3c(=O)[nH]2)CC1", "note": "[Example 112, 6-(8-fluoro-2-methylimidazo[1,2-a]pyridin-6-yl)-2-[1-(2-methoxyethyl)piperidin-4-yl]pyrido[3,4-d]pyrimidin-4(3H)-one]", "values": [{"measurement": "Percentage of increase (FL-SMN mRNA standardized against GAPDH, DMSO control set as 100%)", "value": "**** (equal to or higher than 180%)"}]}, {"molecule": "Cc1cn2cc(-c3nc4ccc(N5CCN(C)CC5)cc4c(=O)[nH]3)cc2c(C)n1", "note": "[Example 64, 2-(1,3-dimethylpyrrolo[1,2-a]pyrazin-7-yl)-6-(4-methylpiperazin-1-yl)quinazolin-4(3H)-one]", "values": [{"measurement": "Percentage of increase (FL-SMN mRNA standardized against GAPDH, DMSO control set as 100%)", "value": "* (equal to or higher than 100% but lower than 120%)"}]}, {"molecule": "Cc1cc2nc(-c3nc4ccc(N5CCN(C6CC6)CC5)cc4c(=O)[nH]3)cn2c(C)n1", "note": "[Example 117, 6-(4-cyclopropylpiperazin-1-yl)-2-(5,7-dimethylimidazo[1,2-c]pyrimidin-2-yl)quinazolin-4(3H)-one]", "values": [{"measurement": "Percentage of increase (FL-SMN mRNA standardized against GAPDH, DMSO control set as 100%)", "value": "**** (equal to or higher than 180%)"}]}, {"molecule": "Cc1nc2ccc(-c3cc(F)c4nc(C5CCN(C)CC5)[nH]c(=O)c4c3)cc2o1", "note": "[Example 30, 8-fluoro-6-(2-methyl-1,3-benzoxazol-6-yl)-2-(1-methylpiperidin-4-yl)quinazolin-4(3H)-one]", "values": [{"measurement": "Percentage of increase (FL-SMN mRNA standardized against GAPDH, DMSO control set as 100%)", "value": "**** (equal to or higher than 180%)"}]}, {"molecule": "CCN1CCC(F)(c2nc3ccc(-c4cc(F)c5nc(C)cn5c4)cc3c(=O)[nH]2)CC1", "note": "[Example 92, 2-(1-Ethyl-4-fluoropiperidin-4-yl)-6-(8-fluoro-2-methylimidazo[1,2-a]pyridin-6-yl)quinazolin-4(3H)-one]", "values": [{"measurement": "Percentage of increase (FL-SMN mRNA standardized against GAPDH, DMSO control set as 100%)", "value": "**** (equal to or higher than 180%)"}]}, {"molecule": "Cc1cn2cc(-c3cc(F)c4nc(C5(F)CCN(C)CC5)[nH]c(=O)c4c3)cc(F)c2n1", "note": "[Example 97, 8-fluoro-6-(8-fluoro-2-methylimidazo[1,2-a]pyridin-6-yl)-2-(4-fluoro-1-methylpiperidin-4-yl)quinazolin-4(3H)-one]", "values": [{"measurement": "Percentage of increase (FL-SMN mRNA standardized against GAPDH, DMSO control set as 100%)", "value": "**** (equal to or higher than 180%)"}]}, {"molecule": "Cc1cn2cc(-c3ccc4nc(C5(C)CCN(C)CC5)[nH]c(=O)c4c3)ccc2n1", "note": "[Example 84, 2-(1,4-dimethylpiperidin-4-yl)-6-(2-methylimidazo[1,2-a]pyridin-6-yl)quinazolin-4(3H)-one]", "values": [{"measurement": "Percentage of increase (FL-SMN mRNA standardized against GAPDH, DMSO control set as 100%)", "value": "* (equal to or higher than 100% but lower than 120%)"}]}, {"molecule": "Cc1cn2cc(-c3cc4c(=O)[nH]c(C5(F)CCN(C6CC6)CC5)nc4cn3)cc(F)c2n1", "note": "[Example 104, 2-(1-cyclopropyl-4-fluoropiperidin-4-yl)-6-(8-fluoro-2-methylimidazo[1,2-a]pyridin-6-yl)pyrido[3,4-d]pyrimidin-4(3H)-one]", "values": [{"measurement": "Percentage of increase (FL-SMN mRNA standardized against GAPDH, DMSO control set as 100%)", "value": "*** (equal to or higher than 150% but lower than 180%)"}]}, {"molecule": "Cc1cn2cc(-c3ccc4nc(C5(F)CCN(C)CC5)[nH]c(=O)c4c3)ccc2n1", "note": "[Example 37, 2-(4-fluoro-1-methylpiperidin-4-yl)-6-(2-methylimidazo[1,2-a]pyridin-6-yl)quinazolin-4(3H)-one]", "values": [{"measurement": "Percentage of increase (FL-SMN mRNA standardized against GAPDH, DMSO control set as 100%)", "value": "*** (equal to or higher than 150% but lower than 180%)"}]}, {"molecule": "Cc1nc2c(F)cc(-c3cc4c(=O)[nH]c(C5(F)CCNCC5)nc4cn3)cc2o1", "note": "[Example 111, 6-(4-fluoro-2-methy-1,3-benzoxazol-6-yl)-2-(4-fluoropiperidin-4-yl)pyrido[3,4-d]pyrimidin-4(3H)-one]", "values": [{"measurement": "Percentage of increase (FL-SMN mRNA standardized against GAPDH, DMSO control set as 100%)", "value": "**** (equal to or higher than 180%)"}]}, {"molecule": "Cc1nc2c(F)cc(-c3ccc4c(=O)n(C5CCN(C)CC5)cnc4c3)cc2o1", "note": "[Example 29, 7-(4-fluoro-2-methyl-1,3-benzoxazol-6-yl)-3-(1-methylpiperidin-4-yl)quinazolin-4(3H)-one]", "values": [{"measurement": "Percentage of increase (FL-SMN mRNA standardized against GAPDH, DMSO control set as 100%)", "value": "**** (equal to or higher than 180%)"}]}, {"molecule": "CCN1CCC(F)(c2nc3c(F)cc(-c4cc(F)c5nc(C)cn5c4)cc3c(=O)[nH]2)CC1", "note": "[Example 98, 2-(1-ethyl-4-fluoropiperidin-4-yl)-8-fluoro-6-(8-fluoro-2-methylimidazo[1,2-a]pyridin-6-yl)quinazolin-4(3H)-one]", "values": [{"measurement": "Percentage of increase (FL-SMN mRNA standardized against GAPDH, DMSO control set as 100%)", "value": "**** (equal to or higher than 180%)"}]}, {"molecule": "COc1cccc(-c2nc3ccc(C4CCN(C)CC4)cc3c(=O)[nH]2)n1", "note": "[Example 45, 2-(6-methoxypyridin-2-yl)-6-(1-methylpiperidin-4-yl)quinazolin-4(3H)-one]", "values": [{"measurement": "Percentage of increase (FL-SMN mRNA standardized against GAPDH, DMSO control set as 100%)", "value": "** (equal to or higher than 120% but lower than 150%)"}]}]}
